Consider eleven molecules from patent US9884063B2, “Amido-substituted azole compounds” (Bayer Pharma Aktiengesellschaft, priority 2014, dated 2018).

In assay [1] the test system is wildtype Wnt signaling cascade. The assay is described as follows: HEK293 TOP Assay (Super TopFlash luciferase reporter, Wnt-3a stimulated). Type of assay: cell-based. To be noted: Homo sapiens, HEK293, 16 h, HEK293 TOP reporter cell line, Wnt-3a at EC50, 16 hours incubation, compound dilution series 50 μM to 15 nM. A digest of the protocol:
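HEK293 cells stably carrying Super TopFlash (TOP) or FOP reporter, stimulated with recombinant human Wnt-3a (2500–5 ng/ml, two-fold steps). Both lines incubated in parallel with compound from 50 μM to 15 nM (3.16-fold) in CAFTY buffer pH 7.4 with 2 mM Ca2+ and 0.01% BSA; selectivity judged TOP vs FOP.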

A further assay has as its target T1, TNKS2 (Homo sapiens, UniProt Q9H2K2).
T1 sequence (Q9H2K2 1-1166): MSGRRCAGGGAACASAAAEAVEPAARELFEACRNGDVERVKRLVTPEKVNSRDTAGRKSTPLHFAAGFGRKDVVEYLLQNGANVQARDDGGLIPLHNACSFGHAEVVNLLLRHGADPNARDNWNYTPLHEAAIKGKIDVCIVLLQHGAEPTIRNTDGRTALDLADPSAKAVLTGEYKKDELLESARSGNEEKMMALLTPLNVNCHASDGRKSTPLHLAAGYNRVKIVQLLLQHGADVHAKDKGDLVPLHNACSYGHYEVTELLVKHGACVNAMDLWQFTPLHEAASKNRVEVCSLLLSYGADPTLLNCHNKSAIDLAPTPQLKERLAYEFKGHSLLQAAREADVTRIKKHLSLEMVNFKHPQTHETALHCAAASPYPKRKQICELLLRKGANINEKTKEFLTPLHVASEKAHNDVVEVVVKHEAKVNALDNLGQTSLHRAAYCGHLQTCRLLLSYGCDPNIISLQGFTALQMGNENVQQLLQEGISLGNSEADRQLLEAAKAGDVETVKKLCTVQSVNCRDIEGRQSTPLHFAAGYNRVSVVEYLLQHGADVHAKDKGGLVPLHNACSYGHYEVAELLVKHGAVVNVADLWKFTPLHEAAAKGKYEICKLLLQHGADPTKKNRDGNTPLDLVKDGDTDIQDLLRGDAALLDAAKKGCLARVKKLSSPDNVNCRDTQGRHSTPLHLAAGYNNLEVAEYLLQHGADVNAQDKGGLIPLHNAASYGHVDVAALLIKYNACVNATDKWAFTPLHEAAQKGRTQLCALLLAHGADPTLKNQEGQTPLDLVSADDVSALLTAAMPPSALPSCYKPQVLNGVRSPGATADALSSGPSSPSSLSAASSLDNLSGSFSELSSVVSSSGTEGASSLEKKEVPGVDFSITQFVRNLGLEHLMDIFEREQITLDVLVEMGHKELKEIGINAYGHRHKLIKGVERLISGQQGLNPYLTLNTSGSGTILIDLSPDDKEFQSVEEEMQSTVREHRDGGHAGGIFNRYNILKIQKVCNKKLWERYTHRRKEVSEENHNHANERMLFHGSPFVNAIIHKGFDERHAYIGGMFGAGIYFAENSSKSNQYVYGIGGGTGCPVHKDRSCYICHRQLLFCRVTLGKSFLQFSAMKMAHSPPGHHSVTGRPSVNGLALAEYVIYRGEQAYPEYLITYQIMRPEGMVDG
The assay is described as follows: Modified TNKS2 Assay 3 (BPS kit #80578, biotin-NAD+, 96 well). Type of assay: biochemical. To be noted: human TNKS2, BPS kit #80578, 96 well. How it is done:
(§1) The potency of the compounds against human TNKS2 according to the invention was assessed using a commercially available biotin/streptavidin binding assay kits from BPS Bioscience, San Diego, USA (Catalog #80578 for TNKS2). The incorporation of a biotin-labeled NAD+ during the […] catalyzed ribosylation of a suitable protein substrate was detected using with a streptavidin-HRP coupled chemi-luminescent readout. The intensity of the readout signal is proportional to the incorporated NAD^+. Inhibition of TNKS2 leads to a decreased incorporation of NAD^+ and consequently to a lower readout signal intensity in the corresponding TNKS2 assays. The concentration of a test compound that inhibits the enzyme activity by 50% (corresponds to half of the normed readout signal intensity) is reported as IC50. The assay conducted in a 96 well MTP format according to the manufacturer's protocol and using a BMG Pherastar MTP reader [BMG-Labtech, Offenburg, Germany].

Assay [2] concerns HEK293 FOP control reporter cell line. The assay is described as follows: HEK293 FOP Assay (FOP control vector luciferase reporter). The format is cell-based. The conditions noted are these: Homo sapiens; HEK293 FOP control reporter cell line, 16 hours incubation, compound dilution series 50 μM to 15 nM. A digest of the protocol:
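Stable HEK293 line carrying the FOP vector (randomized, non-functional TCF sites; Geneticin-selected) was run in parallel with the TOP line. Cells were plated 24 h ahead at 10000/well and given recombinant human Wnt-3a at 2500–5 ng/ml. Compounds were tested at 50 μM–15 nM (3.16-fold steps) in CAFTY buffer, pH 7.4, with 2 mM Ca2+ and 0.01% BSA.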

The target of another assay is T2, TNKS1 (Homo sapiens, UniProt O95271).
T2 sequence (O95271 1-1327): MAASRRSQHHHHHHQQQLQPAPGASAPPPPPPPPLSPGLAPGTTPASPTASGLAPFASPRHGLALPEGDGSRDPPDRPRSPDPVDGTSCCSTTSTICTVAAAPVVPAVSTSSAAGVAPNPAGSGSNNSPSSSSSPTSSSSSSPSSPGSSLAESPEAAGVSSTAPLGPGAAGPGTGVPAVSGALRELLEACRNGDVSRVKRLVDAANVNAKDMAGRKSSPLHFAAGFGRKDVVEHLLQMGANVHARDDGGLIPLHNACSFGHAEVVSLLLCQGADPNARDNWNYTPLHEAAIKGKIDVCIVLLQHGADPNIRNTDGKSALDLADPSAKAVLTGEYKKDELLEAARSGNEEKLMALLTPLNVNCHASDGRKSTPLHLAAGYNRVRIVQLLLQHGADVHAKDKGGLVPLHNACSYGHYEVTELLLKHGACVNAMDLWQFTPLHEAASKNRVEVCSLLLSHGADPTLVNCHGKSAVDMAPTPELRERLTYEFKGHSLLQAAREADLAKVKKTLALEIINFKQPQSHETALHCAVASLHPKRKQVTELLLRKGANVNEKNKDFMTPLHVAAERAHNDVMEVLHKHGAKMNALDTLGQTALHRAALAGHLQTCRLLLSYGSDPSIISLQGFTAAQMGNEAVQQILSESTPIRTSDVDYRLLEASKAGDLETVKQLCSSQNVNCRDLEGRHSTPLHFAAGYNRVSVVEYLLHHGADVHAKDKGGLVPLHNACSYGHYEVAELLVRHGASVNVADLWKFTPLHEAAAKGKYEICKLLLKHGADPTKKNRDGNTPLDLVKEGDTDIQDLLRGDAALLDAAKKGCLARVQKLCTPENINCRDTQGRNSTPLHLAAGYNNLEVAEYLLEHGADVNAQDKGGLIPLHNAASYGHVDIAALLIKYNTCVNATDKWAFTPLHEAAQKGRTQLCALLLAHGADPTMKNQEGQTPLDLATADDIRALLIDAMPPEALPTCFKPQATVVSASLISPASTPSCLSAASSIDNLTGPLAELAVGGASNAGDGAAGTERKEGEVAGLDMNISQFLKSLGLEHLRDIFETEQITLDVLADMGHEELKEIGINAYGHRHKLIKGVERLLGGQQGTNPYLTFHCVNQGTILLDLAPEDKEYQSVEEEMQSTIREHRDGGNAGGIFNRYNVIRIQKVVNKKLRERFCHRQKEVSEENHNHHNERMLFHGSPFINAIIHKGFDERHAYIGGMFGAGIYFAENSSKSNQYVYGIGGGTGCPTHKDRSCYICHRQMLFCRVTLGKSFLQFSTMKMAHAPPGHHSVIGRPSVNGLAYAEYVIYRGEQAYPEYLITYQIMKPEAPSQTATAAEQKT
The assay is described as follows: Modified TNKS1 Assay 3 (BPS kit #80573, biotin-NAD+, 96 well). Type of assay: biochemical. The conditions noted are these: human TNKS1, BPS kit #80573, 96 well. As for the experimental part: as §1, with “against human TNKS1 according to” for “against human TNKS2 according to”, “USA (Catalog #80573 for TNKS1).” for “USA (Catalog #80578 for TNKS2).”, “#80573 for TNKS1). The incorporation” for “#80578 for TNKS2). The incorporation”, “Inhibition of TNKS1 leads to” for “Inhibition of TNKS2 leads to”, “the corresponding TNKS1 assays. The” for “the corresponding TNKS2 assays. The”, “The assay was conducted in” for “The assay conducted in”

Each structure is given as a SMILES string.

With `CNC(=O)c1nc[nH]c1C(=O)Nc1ccc(NC(=O)c2ccc(F)cc2Cl)c(F)c1` [Example 72, N^5-{4-[(2-chloro-4-fluorobenzoyl)amino]-3-fluorophenyl}-N^4-methyl-1H-imidazole-4,5-dicarboxamide], the IC50 (usually the concentration needed to halve the response being measured) in assay [1] came to 490 nM; against TNKS2, 60 nM.

As for `CC(C)(CNC(=O)c1[nH]cnc1C(=O)Nc1ccc(NC(=O)c2ccc(F)cc2Cl)cc1)N1CCCCC1` [Example 159, N^4-{4-[(2-chloro-4-fluorobenzoyl)amino]phenyl}-N^5-[2-methyl-2-(piperidin-1-yl)propyl]-1H-imidazole-4,5-dicarboxamide], the IC50 in assay [1] amounted to 90 nM; against TNKS2 it was 2 nM.

As for `CC(CN1CCOCC1)NC(=O)c1[nH]cnc1C(=O)Nc1ccc(NC(=O)c2ccccc2Cl)cc1` (centres unmarked) [Example 162, N^4-{4-[(2-chlorobenzoyl)amino]phenyl}-N^5-[1-(morpholin-4-yl)propan-2-yl]-1H-imidazole-4,5-dicarboxamide], the IC50 stood at 270 nM in assay [1] and 20 nM on TNKS2.

In the case of `CC(CNC(=O)c1[nH]cnc1C(=O)Nc1ccc(NC(=O)c2ccc(F)cc2Cl)cc1)N1CCCCC1` (centres unmarked) [Example 170, N^4-{4-[(2-chloro-4-fluorobenzoyl)amino]phenyl}-N^5-[2-(piperidin-1-yl)propyl]-1H-imidazole-4,5-dicarboxamide], the IC50 was found to be 180 nM in assay [1] and 2 nM against TNKS2.

Consider `CCN(CC)CCCNC(=O)c1nc[nH]c1C(=O)Nc1ccc(NC(=O)c2ccc(F)cc2Cl)cc1` [Example 388, N^5-{4-[(2-chloro-4-fluorobenzoyl)amino]phenyl}-N^4-[3-(diethylamino)propyl]-1H-imidazole-4,5-dicarboxamide], for which the values for the IC50 (in assay [1]; in assay [2]; at TNKS1) were 440 nM, 17 µM and 30 nM, respectively.

As to `CN(C)CC(C)(C)CNC(=O)c1nc[nH]c1C(=O)Nc1ccc(NC(=O)c2ccc(F)cc2Cl)cc1` [Example 396, N^5-{4-[(2-chloro-4-fluorobenzoyl)amino]phenyl}-N^4-[3-(dimethylamino)-2,2-dimethylpropyl]-1H-imidazole-4,5-dicarboxamide], the IC50 is 340 nM in assay [1], 25 µM in assay [2] and 180 nM at TNKS1.

In the case of `CC1CCCC(C)N1CCNC(=O)c1nc[nH]c1C(=O)Nc1ccc(NC(=O)c2ccc(F)cc2Cl)cc1` (centres unmarked) [Example 401, N^5-{4-[(2-chloro-4-fluorobenzoyl)amino]phenyl}-N^4-[2-(2,6-dimethylpiperidin-1-yl)ethyl]-1H-imidazole-4,5-dicarboxamide], the values for the IC50 (in assay [1]; in assay [2]; against TNKS1) were 330 nM, 21 µM and 180 nM, respectively.

As to `O=C(Nc1ccc(NC(=O)c2[nH]cnc2C(=O)NCCCCCN2CCCC2)cc1)c1ccc(F)cc1Cl` [Example 406, N^5-{4-[(2-chloro-4-fluorobenzoyl)amino]phenyl}-N^4-[5-(pyrrolidin-1-yl)pentyl]-1H-imidazole-4,5-dicarboxamide], the IC50 in assay [1] worked out at 350 nM; in assay [2] it was 26 µM; at TNKS1, 70 nM.

As for `CCN1CCC(CNC(=O)c2nc[nH]c2C(=O)Nc2ccc(NC(=O)c3ccc(F)cc3Cl)cc2)CC1` [Example 409, N^5-{4-[(2-chloro-4-fluorobenzoyl)amino]phenyl}-N^4-[(1-ethylpiperidin-4-yl)methyl]-1H-imidazole-4,5-dicarboxamide], the IC50 in assay [1] is 190 nM; in assay [2], 32 µM; on TNKS1, 80 nM.

With `CN1CCCCC1CNC(=O)c1nc[nH]c1C(=O)Nc1ccc(NC(=O)c2ccc(F)cc2Cl)cc1` (centres unmarked) [Example 410, N^5-{4-[(2-chloro-4-fluorobenzoyl)amino]phenyl}-N^4-[(1-methylpiperidin-2-yl)methyl]-1H-imidazole-4,5-dicarboxamide], the IC50 in assay [1] was found to be 110 nM; in assay [2], 18 µM; against TNKS1, 90 nM.

Consider `CN1CCC(NC(=O)c2nc[nH]c2C(=O)Nc2ccc(NC(=O)c3ccc(F)cc3Cl)cc2)CC1` [Example 414, N^5-{4-[(2-chloro-4-fluorobenzoyl)amino]phenyl}-N^4-(1-methylpiperidin-4-yl)-1H-imidazole-4,5-dicarboxamide], for which the results for the IC50 (in assay [1]; in assay [2]; at TNKS1) were 270 nM, 33 µM and 50 nM, respectively.
